Results as given in patent US20050192347A1, “Urea and thiourea compounds and compositions for cholesterol management and related uses” (priority 2003, published 2005).

Experiments:
obese female Zucker rats = assay: Oral daily treatment of obese female Zucker rats for fourteen days: serum lipids, glycemic control indicators, body weight; format: in vivo, rat; conditions: 14 days; for Glucose, Percent Change from Pre-treatment: blood, 6-hour fast; for Glucose, Percent Change from Pre-treatment / BHA, Percent Change from Pre-treatment / NEFA, Percent Change from Pre-treatment / HDL-C/nonHDL-C / HDL-C, Percent Change from Pre-treatment / Insulin, Percent Change from Pre-treatment / Non HDL-C, Percent Change from Pre-treatment / TC, Percent Change from Pre-treatment / TG, Percent Change from Pre-treatment: oral; for % wt. gain: oral gavage; for BHA, Percent Change from Pre-treatment: serum beta hydroxy butyric acid; for NEFA, Percent Change from Pre-treatment: serum non-esterified fatty acids; for HDL-C/nonHDL-C: serum ratio; for HDL-C, Percent Change from Pre-treatment / Insulin, Percent Change from Pre-treatment / Non HDL-C, Percent Change from Pre-treatment / TC, Percent Change from Pre-treatment / TG, Percent Change from Pre-treatment: serum
Procedure: In a number of different experiments, illustrative compounds A and A1 of the invention were administered daily at a dose of up to 100 mg/kg to chow-fed obese female Zucker rats for fourteen days in the morning by oral gavage in 1.5% carboxymethylcellulose/0.2% Tween-20 or 20% ethanol/80% polyethylene glycol (dosing vehicles). Animals were weighed daily. Animals were allowed free access to rodent chow and water throughout the study except on days of blood sampling where food was restricted for six hours prior to blood sampling. Blood glucose was determined after the 6-hour fast in the afternoon without anesthesia from a tail vein. Serum was also prepared from pretreatment blood samples subsequently obtained from the orbital venous plexus (with O2/CO2 anesthesia) and following the fourteenth dose at sacrifice from the heart following O2/CO2 anesthesia. Serums were assayed for lipoprotein cholesterol profiles, triglycerides, total cholesterol, NonHDL cholesterol, HDL cholesterol, the ratio of HDL cholesterol to that of Non-HDL cholesterol, insulin, non-esterified fatty acids, and beta hydroxy butyric acid. The percent body weight gain and the ratio of liver to body weight was also determined. These are shown as absolute values or as a percent change of the pretreatment values in Table 4. [drawing 300]

primary rat hepatocytes = assay: Inhibition of lipid synthesis ([1-14C]-acetate incorporation) in primary cultures of rat hepatocytes; format: cell-based; conditions: 0-300 μM
Procedure: Compounds were tested for inhibition of lipid synthesis in primary cultures of rat hepatocytes. Male Sprague-Dawley rats were anesthetized with intraperitoneal injection of sodium pentobarbital (80 mg/kg). Rat hepatocytes were isolated essentially as described by the method of Seglen (Seglen, P. O. Hepatocyte suspensions and cultures as tools in experimental carcinogenesis. J. Toxicol. Environ. Health 1979, 5, 551-560). Hepatocytes were suspended in Dulbecco's Modified Eagles Medium containing 25 mM D-glucose, 14 mM HEPES, 5 mM L-glutamine, 5 mM leucine, 5 mM alanine, 10 mM lactate, 1 mM pyruvate, 0.2% bovine serum albumin, 17.4 mM non-essential amino acids, 20% fetal bovine serum, 100 nM insulin and 20 μg/mL gentamycin) and plated at a density of 1.5×10^5 cells/cm^2 on collagen-coated 96-well plates. Four hours after plating, media was replaced with the same media without serum. Cells were grown overnight to allow formation of monolayer cultures. Lipid synthesis incubation conditions were initially assessed to ensure the linearity of [1-^14C]-acetate incorporation into hepatocyte lipids for up to 4 hours. Hepatocyte lipid synthesis inhibitory activity was assessed during incubations in the presence of 0.25 μCi [1-^14C]-acetate/well (final radiospecific activity in assay is 1 Ci/mol) and 0, 1, 3, 10, 30, 100 or 300 μM of compounds for 4 hours. At the end of the 4-hour incubation period, medium was discarded and cells were washed twice with ice-cold phosphate buffered saline and stored frozen prior to analysis. To determine total lipid synthesis, 170 μl of MicroScint-E® and 50 μl water was added to each well to extract and partition the lipid soluble products to the upper organic phase containing the scintillant. Lipid radioactivity was assessed by scintillation spectroscopy in a Packard TopCount NXT.

[1] = Rattus norvegicus, Hepatocyte, 4 h

## CC(C)(CO)CCCCNC(=O)NCCCCC(C)(C)CO [A, 1,3-bis-(6-hydroxy-5,5-dimethyl-hexyl)-urea]
Obese female Zucker rats; 100 mg/kg/day
  Glucose, Percent Change from Pre-treatment: 2%
  % wt. gain: 4%
  BHA, Percent Change from Pre-treatment: 172%
  NEFA, Percent Change from Pre-treatment: 8%
  HDL-C/nonHDL-C: 2.7
  HDL-C, Percent Change from Pre-treatment: 92%
  Insulin, Percent Change from Pre-treatment: 60%
  Non HDL-C, Percent Change from Pre-treatment: −5%
  TC, Percent Change from Pre-treatment: 50%
  TG, Percent Change from Pre-treatment: −31%

## CC(C)(CO)CCCCNC(=O)NCCCC(C)(C)CO [Compound 213, 1-(5-Hydroxy-4,4-dimethylpentyl)-3-(6-hydroxy-5,5-dimethylhexyl)urea]
Primary rat hepatocytes; [1]
  IC50: 34 µM

## CC(C)(CO)CCCCNC(=O)NCCCc1ccccc1 [Compound 216, 1-(6-Hydroxy-5,5-dimethylhexyl)-3-(3-phenylpropyl)urea]
Primary rat hepatocytes; [1]
  IC50: 51 µM

## CC(C)(CO)CCCCNC(=O)NCCCCc1ccccc1 [Compound 217, 1-(6-Hydroxy-5,5-dimethylhexyl)-3-(4-phenylbutyl)urea]
Primary rat hepatocytes; [1]
  IC50: 221 µM

## CCOC(=O)CCCCCNC(=O)NCCCCC(C)(C)CO [Compound 219, Ethyl 6-(3-(6-hydroxy-5,5-dimethylhexyl)ureido)hexanoate]
Primary rat hepatocytes; [1]
  IC50: 82 µM

## CC(C)(CO)CCCCNC(=O)NCCCCC(C)(CO)c1ccccc1 (centres unmarked) [Compound 220, 1-(6-Hydroxy-5,5-dimethylhexyl)-3-(6-hydroxy-5-methyl-5-phenylhexyl)urea]
Primary rat hepatocytes; [1]
  IC50: 8.8 µM

## CC(CO)(CCCCNC(=O)NCCc1ccccc1)c1ccccc1 (centres unmarked) [Compound 222, 1-(6-Hydroxy-5-methyl-5-phenylhexyl)-3-phenethylurea]
Primary rat hepatocytes; [1]
  IC50: 264 µM

## CC(CO)(CCCCNC(=O)NCCCc1ccccc1)c1ccccc1 (centres unmarked) [Compound 223, 1-(6-Hydroxy-5-methyl-5-phenylhexyl)-3-(3-phenylpropyl)urea]
Primary rat hepatocytes; 4 hours
  IC50: 77 µM
Primary rat hepatocytes; [1]
  IC50: 137 µM

## CCOC(=O)CCCCCNC(=O)NCCCCC(C)(CO)c1ccccc1 (centres unmarked) [Compound 225, Ethyl 6-(3-(6-hydroxy-5-methyl-5-phenylhexyl)ureido)hexanoate]
Primary rat hepatocytes; [1]
  IC50: 128 µM

## CC(CO)(CCCCCNC(=O)NCCCCC(C)(CO)c1ccccc1)c1ccccc1 (centres unmarked) [Compound 226, 1-(6-Hydroxy-5-methyl-5-phenylhexyl)-3-(7-hydroxy-6-methyl-6-phenylheptyl)urea]
Primary rat hepatocytes; [1]
  IC50: 88 µM

## CC(CO)(CCCCCNC(=O)NCCc1ccccc1)c1ccccc1 (centres unmarked) [Compound 227, 1-(7-Hydroxy-6-methyl-6-phenylheptyl)-3-phenethylurea]
Primary rat hepatocytes; [1]
  IC50: 223 µM

## CC(CO)(CCCCCNC(=O)NCCCc1ccccc1)c1ccccc1 (centres unmarked) [Compound 228, 1-(7-hydroxy-6-methyl-6-phenylheptyl)-3-(3-phenylpropyl)urea]
Primary rat hepatocytes; [1]
  IC50: 101 µM

## COC(=O)CCCNC(=O)NCCCCCC(C)(CO)c1ccccc1 (centres unmarked) [Compound 230]
Primary rat hepatocytes; [1]
  IC50: 103 µM

## CC(CO)(CCCCCNC(=O)NCCCCCC(C)(CO)c1ccccc1)c1ccccc1 (centres unmarked) [Compound 231, 1,3-Bis(7-hydroxy-6-methyl-6-phenylheptyl)urea]
Primary rat hepatocytes; [1]
  IC50: 39 µM

## CC(C)(CO)CCCCNC(=S)NCCCCC(C)(C)CO [Compound A1, 1,3-bis-(6-hydroxy-5,5-dimethylhexyl)-thiourea]
Obese female Zucker rats; 30 mg/kg/day
  Glucose, Percent Change from Pre-treatment: −4%
  % wt. gain: 10%
  BHA, Percent Change from Pre-treatment: 283%
  NEFA, Percent Change from Pre-treatment: 11%
  HDL-C/nonHDL-C: 2.0
  HDL-C, Percent Change from Pre-treatment: −11%
  Insulin, Percent Change from Pre-treatment: −29%
  Non HDL-C, Percent Change from Pre-treatment: 32%
  TC, Percent Change from Pre-treatment: −9%
  TG, Percent Change from Pre-treatment: 7%
Obese female Zucker rats; 100 mg/kg/day
  Glucose, Percent Change from Pre-treatment: −15%
  % wt. gain: 7%
  BHA, Percent Change from Pre-treatment: 305%
  NEFA, Percent Change from Pre-treatment: 34%
  HDL-C/nonHDL-C: 1.3
  HDL-C, Percent Change from Pre-treatment: 2%
  Insulin, Percent Change from Pre-treatment: 10%
  Non HDL-C, Percent Change from Pre-treatment: −29%
  TC, Percent Change from Pre-treatment: −7%
  TG, Percent Change from Pre-treatment: −15%
